Results from ChEMBL document CHEMBL1133634, “3-Deoxyclocinnamox: the first high-affinity, nonpeptide mu-opioid antagonist lacking a phenolic hydroxyl group” (J Med Chem, 2000).

biological target: Mu-type opioid receptor (Homo sapiens) (UniProt P35372); assay: […] [35S]- GTPgammaS on Opioid receptor mu 1 in monkey brain membranes; type: cell membranes; conditions: Cercopithecidae, Membrane, target entry is the homologue from another species
Sequence (P35372 whole entry): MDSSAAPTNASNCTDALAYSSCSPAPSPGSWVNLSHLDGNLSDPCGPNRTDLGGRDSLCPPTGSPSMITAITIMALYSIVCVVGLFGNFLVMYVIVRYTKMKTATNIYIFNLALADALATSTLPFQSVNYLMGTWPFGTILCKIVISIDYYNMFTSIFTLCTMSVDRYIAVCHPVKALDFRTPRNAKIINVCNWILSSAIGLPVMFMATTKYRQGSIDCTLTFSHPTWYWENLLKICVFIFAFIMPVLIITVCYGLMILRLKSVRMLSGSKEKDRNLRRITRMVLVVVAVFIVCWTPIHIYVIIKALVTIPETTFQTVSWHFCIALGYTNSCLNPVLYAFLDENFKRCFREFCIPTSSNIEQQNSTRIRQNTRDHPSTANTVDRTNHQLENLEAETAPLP

SMILES | Ke
COc1ccc2c3c1O[C@H]1C(=O)CC[C@@]4(NC(=O)/C=C/c5ccc(Cl)cc5)[C@@H](C2)N(CC2CC2)CC[C@]314 | 6.37 nM
O=C(/C=C/c1ccc(Cl)cc1)NC12CCC(=O)C3Oc4cccc5c4[C@@]31CCN(CC1CC1)[C@@H]2C5 (stereo partly drawn) | 0.28 nM
O=C(/C=C/c1ccc(Cl)cc1)N[C@@]12CCC(=O)[C@@H]3Oc4c(O)ccc5c4[C@@]31CCN(CC1CC1)[C@@H]2C5 | 0.37 nM
